From patent US5250679A, “Nonpeptidyl platelet aggregation inhibitors having specificity for the GPIIb III receptor” (Genentech, Inc., priority 1992, dated 1993)

Legend:
GP IIb IIIa [1] = molecular target: T1, GP IIb IIIa (Homo sapiens, UniProt P05106+P08514); experiment: Fibrinogen-GP IIb IIIa Receptor ELISA Binding Assay (Fg/IIbIIIa)
T1 construct: from tissue; host or cells: outdated human platelets
Procedure, shortened: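 Purified human platelet GP IIb IIIa binding to immobilised purified fibrinogen was run with compound at room temperature for 1 h. IC50 values were determined.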

[2] = molecular target: T2, Human Vitronectin receptor (av b3) (Homo sapiens, UniProt P05106+P06756); experiment: Human Vitronectin-Vitronectin Receptor (av b3) ELISA Assay (Vn/VnR); format: binding; settings: Example 30, G # table
T2 construct: is purified from human placenta; from tissue; host or cells: human placenta
T2 sequence (P06756 31-889 limits assumed): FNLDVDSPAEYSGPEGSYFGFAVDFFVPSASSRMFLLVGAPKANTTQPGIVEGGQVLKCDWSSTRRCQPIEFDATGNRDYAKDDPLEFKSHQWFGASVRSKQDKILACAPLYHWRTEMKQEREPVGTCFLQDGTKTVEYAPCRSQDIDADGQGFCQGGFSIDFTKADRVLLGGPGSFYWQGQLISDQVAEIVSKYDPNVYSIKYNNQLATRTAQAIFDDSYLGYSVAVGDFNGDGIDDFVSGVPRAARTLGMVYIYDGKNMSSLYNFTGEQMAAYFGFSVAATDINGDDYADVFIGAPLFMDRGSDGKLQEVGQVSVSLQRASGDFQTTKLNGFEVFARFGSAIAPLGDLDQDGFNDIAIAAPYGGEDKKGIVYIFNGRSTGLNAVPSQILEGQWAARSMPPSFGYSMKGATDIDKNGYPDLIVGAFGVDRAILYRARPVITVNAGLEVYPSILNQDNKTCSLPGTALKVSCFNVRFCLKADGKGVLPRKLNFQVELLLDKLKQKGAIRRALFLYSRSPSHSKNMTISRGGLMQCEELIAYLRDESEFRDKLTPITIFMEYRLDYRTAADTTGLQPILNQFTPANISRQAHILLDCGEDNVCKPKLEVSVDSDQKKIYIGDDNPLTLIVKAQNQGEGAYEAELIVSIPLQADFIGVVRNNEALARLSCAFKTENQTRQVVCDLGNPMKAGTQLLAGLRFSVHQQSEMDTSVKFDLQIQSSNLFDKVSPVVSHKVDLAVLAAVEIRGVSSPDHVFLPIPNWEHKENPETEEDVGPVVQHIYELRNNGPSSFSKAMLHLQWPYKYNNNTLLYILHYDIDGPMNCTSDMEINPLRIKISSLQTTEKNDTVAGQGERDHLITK
T2 sequence (P06756 891-1048 partner limits assumed): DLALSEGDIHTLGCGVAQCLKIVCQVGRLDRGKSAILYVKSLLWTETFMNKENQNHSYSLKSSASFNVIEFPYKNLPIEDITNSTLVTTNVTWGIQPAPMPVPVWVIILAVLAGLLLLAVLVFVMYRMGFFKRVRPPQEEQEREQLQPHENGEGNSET
T2 sequence (P05106 27-788): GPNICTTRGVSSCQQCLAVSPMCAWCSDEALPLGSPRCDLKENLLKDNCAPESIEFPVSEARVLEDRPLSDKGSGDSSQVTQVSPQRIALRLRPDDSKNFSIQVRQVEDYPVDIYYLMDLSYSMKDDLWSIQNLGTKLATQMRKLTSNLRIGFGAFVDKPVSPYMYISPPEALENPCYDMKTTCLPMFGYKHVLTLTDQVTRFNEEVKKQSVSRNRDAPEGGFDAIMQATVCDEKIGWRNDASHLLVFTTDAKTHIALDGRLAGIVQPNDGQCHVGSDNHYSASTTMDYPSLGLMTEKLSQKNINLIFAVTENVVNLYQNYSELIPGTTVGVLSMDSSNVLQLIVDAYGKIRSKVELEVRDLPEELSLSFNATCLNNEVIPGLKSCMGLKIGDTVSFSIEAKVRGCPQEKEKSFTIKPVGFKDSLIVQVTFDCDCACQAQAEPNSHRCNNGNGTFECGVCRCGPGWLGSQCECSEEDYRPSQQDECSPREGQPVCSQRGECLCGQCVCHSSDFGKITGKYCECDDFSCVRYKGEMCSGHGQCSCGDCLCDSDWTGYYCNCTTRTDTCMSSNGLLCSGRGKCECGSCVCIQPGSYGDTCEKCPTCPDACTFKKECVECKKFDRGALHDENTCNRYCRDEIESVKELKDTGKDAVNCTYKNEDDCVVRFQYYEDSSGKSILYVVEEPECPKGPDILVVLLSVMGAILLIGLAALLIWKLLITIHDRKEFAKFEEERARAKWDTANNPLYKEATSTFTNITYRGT
From the text: Human vitronectin (Vn) is isolated from human plasma and purified by affinity chromatography by the method of Yatohgo et. al., (Cell Structure and Function 13: 281-292 [1988]).
Human vitronection receptor (VnR) is purified from human placenta by the method of Pytela et al., (Methods Enzymol., 144: 475 [1987]). Alternatively the av b3 receptor can be purified from some cell lines (e.g., human embryonic kidney 293 cells) transfected with DNA sequences for both the av and b3 subunits. The subunits are purified by employing octylglucoside extraction followed by Con-A, Heparin-Sepharose, and S-300 Chromatography.
This mouse Mab is specific for the b3 subunit of the vitronectin receptor.
Rabbit Fab 2 anti-mouse Fc fragment horse radish peroxidase conjugate (anti-MuFc HRP) is obtained from PelFreeze (cat. no. 715305-1).
Maxisorp microtiter plates are coated with 2 mg/ml human vitronectin dissolved in PBS (50 ml/well) and stored overnight at 4° C. The plates are washed two times with PBS-0.05% Tween-20 (wash buffer) and blocked by incubating with about 150 ml/well of assay buffer (1%, BSA [RIA grade or better] in 50 mM Tris-HCl, 100 mM NaCl, 1 mM MgCl2, CaCl2, MnCl2 pH 7.4) for 60 minutes. […] The blocked plates are emptied and 25 ml/well of inhibitor or standard solution is added to each well. Twenty-five ml of a 30 mg/ml solution of purified av b3 in assay buffer is pipetted into the coated plate. The final concentration of receptor in the assay well is about 15 mg/ml. The plate is incubated on a shaker for 60 minutes. Meanwhile, for each microtite plate, 6 ml buffer solution containing 1.5 mg/ml of mouse monoclonal antibody specific for b3 is prepared. To this solution is added ml of the secondary antibody, which is anti-mouse-Fc-HRP antibody conjugate. For example, for one plate, prepare 6 ml of a 1.5 mg/ml mouse Mab solution to which is added 1 ml of anti-mouse-Fc-HRP antibody stock, (this represents a 1:6000 dilution of the antibody-HRP conjugate). This mixture is allowed to incubate during the receptor-inhibitor incubation. The assay plates are washed 4 times with PBS-Tween and 50 ml/well of the antibody mixture is then pipetted into the plate for a 60 minute incubation. The plate is washed 4 times and the color reaction is developed with 50 ml/well of 0.67 mg/ml o-phenyldiamine in PBS containing 0.012% H2 O2. Alternatively, 16 mM citric acid, 50 mM Na2 PO4 at pH 5.0 can be used as a substrate buffer. The reaction is stopped with 50 ml/well 1 M H2 SO4. The plates are read at 492-405 nm and the data analyzed by four-parameter fit.

GP IIb IIIa [3] = molecular target: T1, GP IIb IIIa; experiment: GP IIb IIIa -von Willebrand factor (vWF) ELISA Assay (vWF/IIbIIIa); format: binding; settings: Example 30, G # table
Protocol: Microtiter plates are coated with 1.0 mg/ml GP IIb IIIa, prepared by the method of Fitzgerald et al., (Anal. Biochem. 151: 169-177 [1985]) and allowed to incubate overnight in coat buffer. The plates are then washed three times in wash buffer (0.05% Tween 20 in PBS) and 150 ml of assay buffer is added and allowed to incubate for 1-2 hours at room temperature on plate shaker. […] Fifty ml of 4.0 mg/ml vWF (prepared as described by Ledford et al., Thrombosis and Haemostasis, 64(4): 569-575 ]1990]) in assay buffer is then added and allowed to incubate for one hour at room temperature on plate-shaker. The plates are washed three times and the antibody mixture is added (1:5000 of mouse anti-vWF and 1:5000 of rabbit-anti-mouse-Fc-HRP, both commercially available) in assay buffer and incubated for 1 hour at room temperature on plate-shaker. […] The color change of OPD/H2 O2 reagent is read at 492 nm with a 405 nm reference wavelength on the filter photometer.

[4] = system: human platelet rich plasma (PRP); experiment: In Vitro Human Platelet Aggregation Assay (PA); format: cell-based; settings: Homo sapiens, Platelet, citrate; read-out: PA IC50 (μM) (citrate)
Protocol: In addition to the GPIIb IIIa ELISA assay, platelet aggregation assays may be performed in human platelet rich plasma (PRP). […] The blood is centrifuged at 160×g for 10 min at 22° C. and then allowed to stand for 5 min after which the PRP is decanted. Platelet poor plasma (PPP) is isolated from the remaining blood after centrifugation at 2000×g for 25 min. The platelet count of the PRP is adjusted to ca. 300,000 per microliter with PPP.
A 225 mL aliquot of PRP plus 25 mL of either a dilution of the test sample or a control (PBS) is incubated for 5 min in a Chrono-log Whole Blood Aggregometer at 25° C. An aggregating agent (collagen, 1 mg/ml; U46619, 100 ng/ml; or ADP, 8 mM) is added and the platelet aggregation recorded.
Platelet aggregation assays are performed in human platelet rich plasma (PRP). […] The blood is centrifuged at 160×g for 10 minutes at 22° C. and allowed to stand for 5 minutes after which the PRP is decanted. Platelet poor plasma (PPP) is isolated from the remaining blood after centrifugation at 2000×g for 25 minutes. The platelet count of the PRP is diluted to about 300,000 platelets per microliter with PPP.
A 225 ml aliquot of PRP plus 25 ml of either a dilution of the test inhibitor sample or a control (PBS) is incubated for 5 minutes in a Chrono-log Whole Blood Aggregometer at 25° C. An aggregating agent (collagen, 1 mg/ml; U46619, 100 ng/ml; or ADP, 17 mM) is added and the transmission is recorded.

[5] = Example 29, Cmpd # 1-105, read-out: IC50 Fg/IIbI
[6] = Example 30, G # table, read-out: IC50 (μM) Fg/IIbIIIa

T1 sequence (P08514 32-887 limits assumed): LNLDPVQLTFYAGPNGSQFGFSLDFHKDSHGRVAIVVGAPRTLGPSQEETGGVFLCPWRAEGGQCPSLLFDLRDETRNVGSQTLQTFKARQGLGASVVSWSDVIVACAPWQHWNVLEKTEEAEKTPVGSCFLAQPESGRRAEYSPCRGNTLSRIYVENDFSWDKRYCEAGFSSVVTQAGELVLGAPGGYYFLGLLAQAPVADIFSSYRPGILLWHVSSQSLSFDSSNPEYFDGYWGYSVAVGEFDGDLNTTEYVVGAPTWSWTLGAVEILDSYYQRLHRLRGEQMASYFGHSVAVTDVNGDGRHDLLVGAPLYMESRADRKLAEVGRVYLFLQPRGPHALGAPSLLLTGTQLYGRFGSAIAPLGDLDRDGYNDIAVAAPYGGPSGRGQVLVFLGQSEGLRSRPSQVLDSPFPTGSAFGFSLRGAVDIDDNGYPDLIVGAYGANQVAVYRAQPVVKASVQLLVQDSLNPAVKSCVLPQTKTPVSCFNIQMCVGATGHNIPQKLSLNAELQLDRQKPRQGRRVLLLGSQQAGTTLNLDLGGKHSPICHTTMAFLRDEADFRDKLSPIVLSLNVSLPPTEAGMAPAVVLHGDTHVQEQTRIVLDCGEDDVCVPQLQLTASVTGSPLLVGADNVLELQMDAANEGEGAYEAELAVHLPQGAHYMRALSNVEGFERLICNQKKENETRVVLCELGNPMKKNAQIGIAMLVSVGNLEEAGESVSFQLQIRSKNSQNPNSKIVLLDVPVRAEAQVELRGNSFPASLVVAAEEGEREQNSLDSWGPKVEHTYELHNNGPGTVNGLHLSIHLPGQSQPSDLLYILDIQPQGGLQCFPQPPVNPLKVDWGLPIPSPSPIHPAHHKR
T1 sequence (P08514 891-1039 partner limits assumed): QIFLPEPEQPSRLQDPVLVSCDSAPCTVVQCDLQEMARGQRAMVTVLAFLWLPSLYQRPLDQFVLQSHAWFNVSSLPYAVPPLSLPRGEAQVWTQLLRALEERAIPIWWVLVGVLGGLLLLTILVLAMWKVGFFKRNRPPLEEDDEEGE
T1 sequence (P05106 27-788): as the sequence (P05106 27-788) above

| Compound | IC50 (GP IIb IIIa [1]; [5]) | IC50 (GP IIb IIIa [1]; [6]) | IC50 [2] | IC50 (GP IIb IIIa [3]) | IC50 [4] |
| --- | --- | --- | --- | --- | --- |
| CN1C(=O)CN(CCC(=O)O)C(=O)c2cc(C#CCCCN)ccc21 [Cmpd 33, 1-methyl-4-(2-carboxyethyl)-7-(5-amino-1-pentynyl)-3,4-dihydro-1H-1,4-benzodiazepine-2,5-dione trifluroacetate] | 0.096 µM | 0.096 µM | > 10 µM | 0.39 µM | 85.5 µM |
| N=C(N)NCCCC#Cc1ccc2c(c1)C(=O)N(CCC(=O)O)CC(=O)N2Cc1cccc([N+](=O)[O-])c1 [Cmpd 36, 1-(3-nitrobenzyl)-4-(2-carboxyethyl)-7-(5-guanidino-1-pentynyl)-3,4-dihydro-1H-1,4-benzodiazepine-2,5-dione trifluroacetate] | 0.0032 µM | 0.0032 µM | 3 µM | 0.0004 µM | 0.94 µM |
| CN1C(=O)CN(CCC(=O)O)C(=O)c2cc(CCCCCN)ccc21 [Cmpd 27, 1-methyl-4-(2-carboxyethyl)-7-(5-amino-1-pentyl)-3,4-dihydro-1H-1,4-benzodiazepine-2,5-dione trifluroacetate] | 1.9 µM | 1.9 µM | > 10 µM | 0.78 µM | – |
